Experimental data from PMC7767381, “Exploring the Anti-Cancer Mechanism of Novel 3,4′-Substituted Diaryl Guanidinium Derivatives” (Pharmaceuticals, 2020).
“Also recorded” adds a separate entry of the source.

The compounds below were run on ERK phosphorylation (MAPK/ERK pathway) (assay: Western immunoblot of ERK phosphorylation in HL-60 extracts). Conditions: HL-60, 5 µM, 16 h.
Type: cell-based, human
Protocol: Thus, using Western immunoblot analysis of HL-60 extracts, we investigated the expression and phosphorylation levels of ERK (as an indication of ERK activation), which is the downstream effector of the Ras/BRAF signalling pathway (Figure 6).
HL60s were seeded in T25 flasks at 50 × 10^4 cells/mL and cells were treated with either vehicle [0.5% EtOH (v/v)], 1–4, 9 or 52 (5 µM), as well as 1 (10 µM as reported). After 16 h, cells were collected and washed with PBS. Cell pellets were re-suspended in cold cell lysis buffer (radio-immunoprecipitation assay buffer) supplemented with 1% phosphatase inhibitor cocktail 2 and 3 (Sigma) and 10% protease inhibitor (Roche). Cells were lysed for 30 min on ice. Protein concentration was then determined by BCA assay. Lysates were boiled with Laemmli sample buffer [Tris-HCL 50 mM (pH 6.7), glycerol 10% (w/v), sodium dodecyl sulphate 2% (w/v), bromophenol blue 0.02% (w/v)] containing DTT […] for 10 min at 90 °C. Moreover, 20 µg of lysates were resolved by sodium dodecyl sulphate polyacrylamide gel electrophoresis (SDS-PAGE) and transferred onto PVDF transfer membrane (EMD Millipore). Membranes were blocked with 5% non-fat milk and probed with primary antibodies for ERK and phospho-ERK (Cell Signalling). Anti-GAPDH was used as a loading control (Calbiochem).
Figure 6 Western immunoblot of HL-60 cell extracts following incubation with compounds 2, 3, 4, 9, 52 and 1 (as a control). HL60 cells were seeded at 2 × 10^5 cells/mL and were treated with either vehicle [0.5% EtOH (v/v)], compounds 52, 2, 9, 3 and 4 (5 µM) or compound 1 (5 and (*) 10 µM, as in reference) for 16 h. Cells were lysed and equal amounts of protein were loaded and separated on 15% SDS-PAGE gels, transferred to PVDF membrane and probed with antibodies against total and phosphorylated ERK. Anti-GAPDH was used as a loading control. Results are representative of 2 independent experiments.
HL-60 cells were seeded in T25 flasks at 50 x10^4 cells/mL and treated with either vehicle [0.5% […]
After 16 hours, cells were […]
collected and washed with PBS. Cell pellets were re-suspended in cold cell lysis buffer (radio-immunoprecipitation assay buffer) supplemented with 1% phosphatase inhibitor cocktail 2 and 3 (Sigma) and 10% protease inhibitor (Roche). Cells were lysed for 30 minutes on ice.
Protein concentration was then determined by BCA assay. Lysates were boiled with laemmli sample buffer [Tris-HCL 50 mM (pH 6.7), glycerol 10% (w/v), sodium dodecyl sulphate 2% (w/v), bromophenol blue 0.02% (w/v)] containing DTT […] for 10 min. at 90 °C. Also 20 µg of lysates were resolved by sodium dodecyl sulphate polyacrylamide gel electrophoresis (SDS - PAGE) and transferred onto PVDF transfer membrane (EMD Millipore). Membranes were blocked with 5% non-fat milk and probed with primary antibodies for ERK and phospho-ERK (Cell Signaling). Anti-GAPDH was used as a loading control (Calbiochem).
In the case of `Cl.Cl.N=C(N)Nc1ccc(Oc2cccc(NC(=N)Nc3ccc(Cl)c(C(F)(F)F)c3)c2)cn1` [Compound 2, 1-(4-Chloro-3-(trifluoromethyl)phenyl)-3-(3-((6-guanidinopyridin-3-yl)oxy)phenyl) guanidine dihydrochloride], the “effect on ERK phosphorylation (Ras/BRAF pathway)” value (“effect … (Ras/BRAF pathway)” below) is reported as “inhibiting ERK phosphorylation; also recorded: abrogates ERK activation”.
For `Cl.N=C(N)Nc1ccc(Oc2cccc(Nc3ccc(Cl)c(C(F)(F)F)c3)c2)cc1` [Compound 3, 1-(4-(3-((4-Chloro-3-(trifluoromethyl)phenyl)amino)phenoxy)phenyl)guanidine hydrochloride], the “effect … (Ras/BRAF pathway)” value was “do not appear to interfere with the Ras/BRAF signalling pathway; also recorded: do not act in the same way”.
With `Cl.N=C(N)Nc1ccc(Oc2cccc(Nc3ccc(Cl)c(C(F)(F)F)c3)c2)cn1` [Compound 4, 1-(5-(3-((4-Chloro-3-(trifluoromethyl)phenyl)amino)phenoxy)pyridin-2-yl)guanidine hydrochloride] the “effect … (Ras/BRAF pathway)” value was “do not appear to interfere with the Ras/BRAF signalling pathway; also recorded: do not act in the same way”.
